± gives the expanded uncertainty stated by the source.
Key:
[1] = molar heat capacity at constant pressure; settings: 101 kPa, Liquid, Small sample (50 mg) DSC
[2] = 101 kPa, Liquid, Hot wire method
[3] = xn = mol fraction of the nth substance listed; settings: 101 kPa, Liquid, Hot wire method, x2 = 0
[4] = molar heat capacity at constant pressure; xn = mol fraction of the nth substance listed; settings: 101 kPa, Liquid, Small sample (50 mg) DSC, x2 = 0

SMILES	molar heat capacity at constant pressure ([1]; 303.15 K)	molar heat capacity at constant pressure ([1]; 313.15 K)	molar heat capacity at constant pressure ([1]; 323.15 K)	molar heat capacity at constant pressure ([1]; 333.15 K)	molar heat capacity at constant pressure ([1]; 343.15 K)	molar heat capacity at constant pressure ([1]; 353.15 K)	thermal conductivity ([2]; 303.15 K)	thermal conductivity ([2]; 313.15 K)	thermal conductivity ([2]; 323.15 K)	thermal conductivity ([2]; 333.15 K)	thermal conductivity ([2]; 343.15 K)	thermal conductivity ([2]; 353.15 K)	also measured
O=S1(=O)CCCC1 [sulfolane]	181.5 ± 2.8 J/K/mol	185.1 ± 2.9 J/K/mol	188.7 ± 2.9 J/K/mol	192.3 ± 3 J/K/mol	194.3 ± 3 J/K/mol	197.8 ± 3.1 J/K/mol	0.1678 ± 0.0008 W/m/K	0.1656 ± 0.0012 W/m/K	0.1634 ± 0.0011 W/m/K	0.1616 ± 0.0011 W/m/K	0.1593 ± 0.0011 W/m/K	0.1581 ± 0.0009 W/m/K	
O [water]	75.3 ± 1.2 J/K/mol	75.26 ± 1.2 J/K/mol	75.3 ± 1.2 J/K/mol	75.39 ± 1.2 J/K/mol	75.48 ± 1.2 J/K/mol	75.6 ± 1.2 J/K/mol	0.6137 ± 0.0027 W/m/K	0.6307 ± 0.0039 W/m/K	0.6437 ± 0.0039 W/m/K	0.6548 ± 0.004 W/m/K	0.6632 ± 0.004 W/m/K	0.67 ± 0.0037 W/m/K	
O [water] + O=S1(=O)CCCC1													thermal conductivity ([3]; 303.15 K): 0.6137 ± 0.0027 W/m/K; thermal conductivity ([3]; 313.15 K): 0.6307 ± 0.0039 W/m/K; thermal conductivity ([3]; 323.15 K): 0.6437 ± 0.0039 W/m/K; thermal conductivity ([3]; 333.15 K): 0.6548 ± 0.004 W/m/K; thermal conductivity ([3]; 343.15 K): 0.6632 ± 0.004 W/m/K; thermal conductivity ([3]; 353.15 K): 0.67 ± 0.0037 W/m/K; molar heat capacity at constant pressure ([4]; 303.15 K): 75.3 ± 1.2 J/K/mol; molar heat capacity at constant pressure ([4]; 313.15 K): 75.26 ± 1.2 J/K/mol; molar heat capacity at constant pressure ([4]; 323.15 K): 75.3 ± 1.2 J/K/mol; molar heat capacity at constant pressure ([4]; 333.15 K): 75.39 ± 1.2 J/K/mol; molar heat capacity at constant pressure ([4]; 343.15 K): 75.48 ± 1.2 J/K/mol; molar heat capacity at constant pressure ([4]; 353.15 K): 75.6 ± 1.2 J/K/mol
